Source: ChEMBL document CHEMBL4177596, “Flavonoids and their derivatives with β-amyloid aggregation inhibitory activity from the leaves and twigs of Pithecellobium clypearia Benth” (Bioorg Med Chem Lett, 2017)
Active and inactive are the calls of the source. No cut-off for these calls is given here.

Tests used:
[1] = molecular target: Amyloid-beta precursor protein (Homo sapiens) (UniProt P05067); test: Inhibition of HFIP-pretreated amyloid beta (1 to 42) (unknown origin) self-induced aggregation at 20 uM incubated for 24 hrs under dark condition by thioflavin-T based fluorometric assay relative to control
Sequence of Amyloid-beta precursor protein (Homo sapiens) (P05067 whole entry): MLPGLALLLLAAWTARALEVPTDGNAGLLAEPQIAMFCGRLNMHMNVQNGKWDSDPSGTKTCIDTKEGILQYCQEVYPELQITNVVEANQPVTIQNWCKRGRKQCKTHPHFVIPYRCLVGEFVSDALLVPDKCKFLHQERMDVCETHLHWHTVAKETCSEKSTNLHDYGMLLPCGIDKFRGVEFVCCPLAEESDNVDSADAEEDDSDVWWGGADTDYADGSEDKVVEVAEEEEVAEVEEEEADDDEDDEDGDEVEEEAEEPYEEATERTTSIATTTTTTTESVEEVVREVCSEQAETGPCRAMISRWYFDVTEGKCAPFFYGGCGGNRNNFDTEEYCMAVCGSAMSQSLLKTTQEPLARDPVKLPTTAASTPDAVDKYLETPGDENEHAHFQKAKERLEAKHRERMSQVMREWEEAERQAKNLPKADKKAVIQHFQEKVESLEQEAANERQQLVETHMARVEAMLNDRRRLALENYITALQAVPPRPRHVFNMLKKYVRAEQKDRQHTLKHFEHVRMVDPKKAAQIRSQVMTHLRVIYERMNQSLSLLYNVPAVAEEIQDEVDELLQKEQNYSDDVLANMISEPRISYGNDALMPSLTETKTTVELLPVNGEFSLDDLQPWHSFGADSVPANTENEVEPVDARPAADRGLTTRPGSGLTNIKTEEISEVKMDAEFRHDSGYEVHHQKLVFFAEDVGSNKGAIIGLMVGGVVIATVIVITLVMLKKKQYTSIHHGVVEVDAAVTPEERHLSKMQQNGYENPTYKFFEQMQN

[2] = system: SH-SY5Y; test: Neuroprotective activity against H2O2-induced cell death in human SH-SY5Y cells assessed as increase in cell viability at 100 uM pretreated for 12 hrs followed by H2O2 challenge measured after 3 hrs by MTT assay; format: functional, cell-based
[3] = system: SH-SY5Y; test: Neuroprotective activity against H2O2-induced morphological changes in human SH-SY5Y cells assessed as reduction in appearance of apoptotic bodies at 100 uM by phase contrast microscopic analysis; format: functional, cell-based
[4] = system: SH-SY5Y; test: Neuroprotective activity against H2O2-induced morphological changes in human SH-SY5Y cells assessed as reduction in cell shrinkage at 100 uM by phase contrast microscopic analysis; format: functional, cell-based

SMILES | inhibition [1] | Activity [2] | Activity [3] | Activity [4]
COc1cc(O)cc2oc(-c3ccc(O)cc3)cc(=O)c12 | Active | – | – | –
O=c1c(O)c(-c2ccc(O)c(O)c2)oc2cc(O)cc(O)c12 | 88.4% | Active | – | –
COc1cc(O)c(C[C@H](O)Cc2ccc(O)c(OC)c2)c(OC)c1 | Active | – | – | –
O=C(Oc1cc(O)c2c(c1)O[C@H](c1cc(O)c(OC(=O)c3cc(O)c(O)c(O)c3)c(O)c1)[C@@H](O)C2)c1cc(O)c(O)c(O)c1 | 56.3% | Active | – | –
COc1cc(-c2cc(=O)c3c(OC)cc(O)cc3o2)ccc1O | Active | – | – | –
C[C@H]1O[C@H](Oc2c(-c3ccc(O)c(O)c3)oc3cc(O)cc(O)c3c2=O)[C@@H](O)[C@@H](O)[C@@H]1O | 70.7% | – | – | –
O=c1cc(-c2ccc(O)c(O)c2)oc2cc(O)cc(O)c12 | 86.5% | Active | – | –
O=C(Oc1cc(O)c2c(c1)O[C@H](c1ccc(O)c(O)c1)[C@@H](O)C2)c1cc(O)c(O)c(O)c1 | Active | Active | – | –
O=C(Oc1cc(O)c2c(c1)O[C@@H](c1cc(O)c(O)c(O)c1)CC2)c1cc(O)c(O)c(O)c1 | Active | Active | – | –
C[C@@H]1Oc2cccc(O)c2C(=O)[C@@H]1O | Active | – | – | –
O=C1c2ccc(O)c(O)c2O[C@H](c2ccc(O)c(O)c2)[C@H]1O | 87.7% | Active | Active | Active
COc1cc(OC)c2c(c1)O[C@H](c1cc(O)c(O)c(OC)c1)[C@@H](O)C2 | Active | – | – | –
O=C(Oc1cc(O)c2c(c1)O[C@H](c1cc(O)c(O)c(O)c1)[C@@H](O)C2)c1cc(O)c(O)c(O)c1 | Active | Active | – | –
C[C@@H]1O[C@@H](Oc2c(-c3cc(O)c(O)c(O)c3)oc3cc(O)cc(O)c3c2=O)[C@H](O)[C@H](O)[C@H]1O | 62.2% | – | – | –
O=C(O[C@@H]1Cc2c(O)cc(O)cc2O[C@@H]1c1cc(O)c(O)c(O)c1)c1cc(O)c(O)c(O)c1 | 86.1% | – | – | –
Oc1cc([C@@H]2CCc3c(O)cccc3O2)cc(O)c1O | 59.6% | – | – | –
